According to US20200181284A1, “EPIGENETIC INHIBITORS FOR SENSITIZING HEMATOLOGIC OR OTHER MALIGNANCIES TO GLUCOCORTICOID THERAPY” (UNIVERSITY OF SOUTHERN CALIFORNIA, priority 2017, published 2020):

Legend:
[1] = test system: GR target genes in NALM6 cells; experiment: RT-qPCR of GR target genes in NALM6 cells; format: cell-based, human; settings: NALM6 cells, KDM inhibitor
Description: (§1) RNA was isolated using TRIzol (Invitrogen) according to the manufacturer's instructions. Reverse transcription reaction was performed using Superscript III (ThermoFisher) according to specifications with 1 μg of total RNA as template. Quantitative PCR amplification of the resulting cDNA was performed on a Roche LightCycler 480 using SYBR green I master mix (Roche). mRNA levels were normalized to the level of b-actin mRNA.
FIGS. 40A, 40B, 40C, 40D-1, 40D-2, 40D-3, and 40D-4 show Aurora kinase B inhibitors sensitizing NALM6 cells to GC-induced cell death. As shown in FIGS. 40A and 40B, NALM6 cells were treated with the indicated dex concentration in addition to 0.75 μM ZM447439 (FIG. 40A), 16 nM AZD2811 (FIG. 40B), or equivalent volume of vehicle DMSO for 72 h, and cell survival was measured by a fluorescence metabolic assay. In each condition, the value measured with dex was normalized to the fluorescence value measured with ethanol. Percentage of survival is shown as the mean±SEM of 4 independent experiments and p-values for individual dex concentrations were calculated using a paired t-test. *p≤0.05, **p≤0.01, * * *p≤0.001. F-test comparing the two curves: p≤0.001. Insets show the EC50s that were calculated as the concentration at which half the cells remained alive, compare to vehicle controls. Error bars depict the SEM of 4 independent experiments and p-values were calculated to compare AURKB inhibitor treatment to DMSO using a paired t-test ** p≤0.01, * * *p≤0.001. […] The indicated proteins were then examined by immunoblot. As shown in FIGS. 40D-1, 40D-2, 40D-3, and 40D-4, NALM6 cells pre-treated with AZD2811 (16 nM) or DMSO for 24 h, were then treated for 8 h with 100 nM dex or ethanol. mRNA levels for the indicated GR target genes were measured by RT-qPCR and normalized to β-actin mRNA levels.
FIGS. 54A, 54B, and 54C highlight the GR Target genes that require G9a and GLP as coactivators.

[2] = test system: GR target genes in A549 cells; experiment: RT-qPCR of endogenous GR target genes in A549 cells; format: cell-based, human; settings: 2 μM added 1 h prior to 100 nM dex
Description: as §1, with “Trizol” for “TRIzol”, “iScript (Biorad)” for “Superscript III (ThermoFisher)”, “0.8” for “1”, “β-actin” for “b-actin”, “mRNA. Primer sequences are specified below in Tables 6 and 7.” for “mRNA.”
The results as shown in FIGS. 21A-21E generally highlight that G9a and GLP act as coactivators for a subset of endogenous GR target genes. FIG. 21A is an immunoblot showing GLP, G9a and tubulin protein levels in whole cell extracts from A549 cells that were transduced with a control lentivirus encoding a non-specific shRNA (shNS) or lentivirus encoding an shRNA targeting GLP (shGLP). […] Results shown are mean±SEM for five independent experiments. p-value was calculated using a paired t-test. *p≤0.05, **p≤0.01. For FIGS. 21F-1, 21F-2, 21F-3, 21F-4, 21F-5, 21F-6, 21F-7, and 21F-8, mRNA levels for the indicated GR target genes were determined as in FIGS. 21D-1, 21D-2, 21D-3, 21D-4, 21D-5, 21D-6, 21D-7, and 21D-8, using A549 cells which were not transfected with siRNA. […] Results shown are mean±SEM for at least four independent experiments. p-value was calculated using a paired t-test. *p≤0.05, **p≤0.01.

| SMILES | dex-induced expression of FKBPS (independent of G9a and GLP) [1] | dex-induced expression of G9a/GLP-dependent GR target genes (TXNIP, GILZ, and NFKBIA) [1] | induction of FKBP5, FOXO1 and CITED2 mRNAs by dex ([2]; G9a- and GLP-independent genes) | dex-induced CDH16, ENaCα, PPL, HSD11B2 and CDH1 mRNA levels ([2]; G9a/GLP-dependent genes) |
| --- | --- | --- | --- | --- |
| Clc1ccc(N/N=C(\c2ccccc2)c2ccccn2)nc1 [JIB-04, 5-chloro-N-[(E)-[phenyl(pyridin-2-yl)methylidene]amino]pyridin-2-amine] | no effect | enhanced | – | – |
| COc1cc2c(Nc3ccc(NC(=O)c4ccccc4)cc3)ncnc2cc1OCCCN1CCOCC1 [ZM447439, N-[4-[[6-methoxy-7-(3-morpholin-4-ylpropoxy)quinazolin-4-yl]amino]phenyl]benzamide] | – | – | not significantly altered | significant increases |
